Broadly, the Kd is a measure of binding affinity in units of concentration. Usually IC50 stands for the concentration that gives 50% inhibition.

Structures are written as SMILES. Where two headings read alike, the source gives them in different places.

Assay [1] addresses T1, E. coli FimH (Escherichia coli, UniProt Q1R2J4). In words: SPR kinetic analysis of FimH against immobilized 6-aminohexyl α-D-mannopyranoside (4). The settings on record: for Kd: KD = koff/kon. The class given is binding. Set-up: The FimH residues 1-158 were isolated from the E. coli strain UTI89; made in house. As to the method: First, the equilibrium dissociation constant (KD) of FimH against immobilized 6-aminohexyl α-D-mannopyranoside (4) was determined. The ligand 6-aminohexyl α-D-mannopyranoside (10 mM in H2O) was immobilized via standard amine carbodiimide coupling chemistry (and blocking with ethanolamine as per the manufacturer’s procedure) to obtain 364 response units (RU) (see sensorgram in SI). The reference channel was treated similarly without ligand. A concentration series of the analyte FimH (1024 to 8 nM in running buffer, 2-fold dilutions) was then injected over the surface (700 s association time; 1200 s dissociation time; 30 μL/min flow rate; 25 °C temperature; running buffer: PBS pH 7.45, 3 mM EDTA supplemented with 0.005% Tween-20; regeneration: 30 s of 10 mM Glycine pH 1.5) and the response was double-referenced by subtracting the reference channel and the response with no FimH (running buffer only). Since equilibrium could not be reached during injection, KD was obtained from the extracted kinetic rate constants (KD = koff / kon) from a non-linear globally fitted 1:1 Langmuir binding isotherm containing a mass transfer constant (tc) and locally fitted refractive index constant (RI) (Biacore T200 evaluation software v1.0, GE Healthcare Life Sciences) of the obtained sensorgrams.
(In general: SPR reads the build-up and loss of mass on a sensor chip optically.)

Assay [2] deals with T1, E. coli FimH. In words: SPR solution affinity (competition) of ligands for FimH on immobilized 6-aminohexyl α-D-mannopyranoside. Set-up: The FimH residues 1-158 were isolated from the E. coli strain UTI89; made in house. The settings on record: for Relative Potency: relative to MeαMan (1) = 1; for ΔG°: from SPR Kd. The class given is binding. The source says: To this end, we first immobilized 6-aminohexyl α-D-mannopyranoside (4) on the CM5 gold chip using the conventional carbodiimide method to which we allowed FimH to bind with and without our competitive inhibitors (see sensorgram of 4 in the SI). The equilibrium dissociation constant (Kd) of the interaction was then normalized, the data sets are illustrated in Figure 5 and values given in Table 1 (see experimental details). This modification from the previous protocol using 8-aminooctyl α-D-mannoside was found much more practical and reliable given its very high affinity to FimH which made the gold chip regeneration from sample to sample too complicated (very slow koff).
SPR Solution Affinity of Ligands for the E. coli FimH Adhesin
Second, the equilibrium dissociation constants (KD) of FimH against the compounds of interest were determined by measuring the amount of free FimH in a series of concentrations of the compounds of interest at a constant concentration of FimH (close to the Kd of FimH: 6-aminohexyl α-D-mannopyranoside) after equilibrium in solution. A concentration series of the ligand of interest (65536 to 0.5 nM in running buffer, 2-fold dilutions) was equilibrated overnight with analyte FimH (40 nM) and then injected over the previous ligand 6-aminohexyl α-D-mannopyranoside-immobilized surface (300 s association time; 300 s dissociation time; 30 μL/min flow rate; 25 °C temperature; running buffer: 5% DMSO, PBS pH 7.45, 3 mM EDTA supplemented with 0.05% Tween-20; regeneration: 30 s of 10 mM Glycine pH 1.5) and the response was single-referenced by subtracting the reference channel and solvent corrected with a DMSO calibration curve. Since equilibrium could not be reached during injection, the responses (free [FimH], Y-axis) at the end of the injections were normalized with the response from FimH only ([compound of interest] = 0) and then plotted over the compounds of interest concentrations (X-axis).

In assay [3] the target is T1, E. coli FimH. In words: Previously reported SPR Kd against FimH. Type of assay: binding. Set-up: The FimH residues 1-158 were isolated from the E. coli strain UTI89; made in house. The settings on record: 5 versus 7; from Kd values of ref 18.
The target of assay [4] is T1, E. coli FimH. Set-up: The FimH residues 1-158 were isolated from the E. coli strain UTI89; made in house. The settings on record: read-out: Kd (SPR), cited from earlier work.
Assay [5] addresses T1, E. coli FimH. Details: The FimH residues 1-158 were isolated from the E. coli strain UTI89; made in house. The settings on record: read-out: IC50 (SPR); cited from earlier work.
Assay [6] addresses T1, E. coli FimH. The settings on record: from IC50 values of ref 20.

With `NCCCCCCO[C@H]1O[C@H](CO)[C@@H](O)[C@H](O)[C@@H]1O` [Compound 4, 6-aminohexyl α-D-mannopyranoside], the Kd at E. coli FimH [1] (KD, fitted constant) is 38.6 nM; at E. coli FimH [1] (Kd, immobilized ligand 4, FimH as analyte, 25 °C, PBS pH 7.45) it was 38.58 ± 0.11 nM. Also, the “dissociation rate constant (koff)” value on E. coli FimH [1] (fitted constant (dissociation rate), 1:1 Langmuir with mass transfer) is recorded as 2,06E-04 1/s. In addition, at E. coli FimH [1] (read-out: ka), the kon came to 5340 M⁻¹ s⁻¹. Also, the “Relative Potency” value on E. coli FimH [1] (relative to MeαMan (1) = 1, immobilized ligand 4) was found to be 12.
On to `OCC1OC(OCC=Cc2ccc(-c3ccccc3)cc2)C(O)C(O)C1O` (stereo not shown) [Compound 5], for which, on E. coli FimH [2], the affinity, expressed as Kd, was 19.9 ± 1.22 nM and the “Relative Potency” value was 24. The “fold better Kd than 7” value at E. coli FimH [3] is reported as 135 fold. Moreover, the Kd on E. coli FimH [4] was 3 nM.
On to `OCC1OC(CC=Cc2ccc(-c3ccccc3)cc2)C(O)C(O)C1O` (stereo not shown) [Compound 6], for which, at E. coli FimH [2], binding was put at a Kd of 11.4 ± 0.63 nM and the “Relative Potency” value was 42.
On to `OC[C@H]1O[C@H](OCC#Cc2ccc(-c3ccccc3)cc2)[C@@H](O)[C@@H](O)[C@@H]1O` [Compound 7], for which the Kd at E. coli FimH [4] is 405 nM.
For `OCC1OC(SCC=Cc2ccc(-c3ccccc3)cc2)C(O)C(O)C1O` [Compound 12, (2E)-3-(1,1’-biphenyl-2-propen-1-yl) 1-thio-α-D-mannopyranoside], at E. coli FimH [2], the Kd was found to be 94.4 ± 6.2 nM and the “Relative Potency” value is recorded as 5. For the same compound, the “difference in respective Kds between 5 and 12” value on E. coli FimH [2] (O-linked 5 versus S-linked 12) is reported as “about 5 fold”.
`CCCCCCCO[C@H]1O[C@H](CO)[C@@H](O)[C@H](O)[C@@H]1O` [HeptylαMan (3), Heptyl α-D-mannopyranoside]: at E. coli FimH [2], the Kd was 2.37 ± 0.5 nM, the “ΔG°” value is -11.76 kcal/mol and the “Relative Potency” value was 200. The Kd at E. coli FimH [4] (reported value for the golden standard) was 5 nM. Further, the IC50 at E. coli FimH [5] is 160 nM.
Take `CO[C@H]1O[C@H](CO)[C@@H](O)[C@H](O)[C@@H]1O` [MeαMan (1), Methyl α-D-mannopyranoside]: at E. coli FimH [2], the Kd was 475 ± 5.7 nM, the “ΔG°” value was -8.62 kcal/mol and the “Relative Potency” value is reported as 1.
Turning to `O=[N+]([O-])c1ccc(O[C@H]2O[C@H](CO)[C@@H](O)[C@H](O)[C@@H]2O)cc1` [PNPαMan (2), para-nitrophenyl α-D-mannopyranoside], at E. coli FimH [2], the Kd came out at 4.21 ± 0.72 nM, the “ΔG°” value was -11.42 kcal/mol and the “Relative Potency” value came out at 113.
On to `CCCCCCCS[C@H]1O[C@H](CO)[C@@H](O)[C@H](O)[C@@H]1O` [S-linked heptyl α-D-mannopyranoside], for which, at E. coli FimH [6], the “difference between O- and S-linked heptyl α-D-mannopyranosides” value is recorded as 3.4 fold. For the same compound, at E. coli FimH [5], the IC50 was 547 nM.

These data come from PMC6804135, “Comparative Study of Aryl O-, C-, and S-Mannopyranosides as Potential Adhesion Inhibitors toward Uropathogenic E. coli FimH” (Molecules, 2019).
